Measured values taken from patent EP4603105A1, “PHARMACEUTICAL COMPOSITION CONTAINING CYCLIC COMPOUND HAVING SELECTIVE KRAS INHIBITORY EFFECT AGAINST HRAS AND NRAS” (CHUGAI SEIYAKU KABUSHIKI KAISHA, priority 2022, dated 2024).
pIC50, pKd: −log10 of the molar value. Where a SMILES comes first, the peptide text is derived from it. Bridges are numbered along the chain shown (N, C = ends). [ ]: non-standard residue; d: D form. The star is where a group is joined. hPhe(3-Cl-4-CF3) = N[C@@H](CCc1ccc(C(F)(F)F)c(Cl)c1)C(=O)O; NPrPhe(4-CF3) = CCCN[C@@H](Cc1ccc(C(F)(F)F)cc1)C(=O)O; NEtPhe(4-CF3) = CCN[C@@H](Cc1ccc(C(F)(F)F)cc1)C(=O)O; NMeGly(cPent) = CN[C@H](C(=O)O)C1CCCC1; Pro(4S-Me) = C[C@@H]1CN[C@H](C(=O)O)C1; NMeD = CN[C@@H](CC(=O)O)C(=O)O; NMeL = CN[C@@H](CC(C)C)C(=O)O; Morpholide = C1CN(*)CCO1; Ac5c = NC1(C(=O)O)CCCC1; Aze = O=C(O)[C@@H]1CCN1; Ac3c = NC1(C(=O)O)CC1; Sar = CNCC(=O)O

Experiments:
HRAS wild-type protein = HRAS wild-type protein (Homo sapiens, UniProt P01112); test: Binding to HRAS by surface plasmon resonance (SPR), KD and KD ratio to KRAS
In short: (§1)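 GDP-loaded biotinylated Avi-tag RAS proteins (E. coli-expressed) captured on a Biotin CAPture chip at ~100–300 RU; single-cycle kinetics at 30°C, 100 µL/min, 75 s injections of rising compound concentrations. HBS pH 7.4 running buffer with 1 mM DTT, 10 mM MgCl2, 10 µM GDP, 4% DMSO. KD from 1:1 binding fit.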

[1] = target: GDP-bound NRAS wild-type protein (Homo sapiens, UniProt P01111); test: Binding to NRAS by surface plasmon resonance (SPR), KD and KD ratio to KRAS
In short: as §1

[2] = target: GDP-bound KRAS wild-type protein (Homo sapiens, UniProt P01116); test: Binding to KRAS by surface plasmon resonance (SPR), dissociation constant KD
In short: as §1

[3] = test system: human lung cancer strain NCI-H441; format: cell-based
In short: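 Readout: […] after the ATP-based reagent. Compound: serial dilutions in dimethyl sulfoxide.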

[4] = ratio of KD for HRAS wild-type protein to KD for KRAS
[5] = ratio of KD for GDP-bound NRAS wild-type protein to KD for KRAS
[6] = ratio of the KD value with respect to HRAS wild-type protein to the KD value with respect to KRAS
[7] = ratio of the KD value with respect to GDP-bound NRAS wild-type protein to the KD value with respect to KRAS
[8] = Single Cycle Kinetics, 1:1 binding model

Chain of HRAS wild-type protein (P01112 whole entry): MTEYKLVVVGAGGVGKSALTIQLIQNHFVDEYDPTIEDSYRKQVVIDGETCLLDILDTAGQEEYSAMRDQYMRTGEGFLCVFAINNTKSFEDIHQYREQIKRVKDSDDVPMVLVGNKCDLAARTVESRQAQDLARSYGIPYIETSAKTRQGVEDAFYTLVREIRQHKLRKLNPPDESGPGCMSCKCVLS
Chain of GDP-bound NRAS wild-type protein (P01111 whole entry): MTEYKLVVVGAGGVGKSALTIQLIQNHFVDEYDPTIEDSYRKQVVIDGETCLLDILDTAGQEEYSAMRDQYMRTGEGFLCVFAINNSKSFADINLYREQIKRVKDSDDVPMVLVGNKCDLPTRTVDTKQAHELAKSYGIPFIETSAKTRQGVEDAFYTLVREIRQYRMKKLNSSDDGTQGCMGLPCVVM
Chain of GDP-bound KRAS wild-type protein (P01116 1-188 isoform P01116-2): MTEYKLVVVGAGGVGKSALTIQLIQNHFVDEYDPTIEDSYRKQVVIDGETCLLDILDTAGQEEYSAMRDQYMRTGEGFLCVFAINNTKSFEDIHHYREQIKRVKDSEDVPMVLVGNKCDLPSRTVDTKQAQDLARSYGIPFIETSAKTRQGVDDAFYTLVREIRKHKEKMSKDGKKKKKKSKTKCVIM

SMILES	pKd ([2]; 1:1 binding model)	pIC50 [3]	pKd ([2]; Single Cycle Kinetics)	pKd [2, 8]	HRAS /KRAS (HRAS wild-type protein; [4])	NRAS /KRAS [1, 5]	HRAS /KRAS (HRAS wild-type protein; [6])	NRAS /KRAS [1, 7]	HRAS /KRAS (HRAS wild-type protein; ratio of KD value for HRAS wild-type protein to KD value for KRAS (SPR))	NRAS /KRAS ([1]; ratio of KD value for GDP-bound NRAS wild-type protein to KD value for KRAS (SPR))
CC[C@H](C)[C@@H]1NC(=O)[C@H](CC(C)C)N(C)C(=O)C[C@@H](C(=O)N2CCOCC2)N(C)C(=O)[C@H](C2CCCC2)N(C)C(=O)C2(CC2)NC(=O)[C@@H]2CCCN2C(=O)[C@H](CCc2ccc(C(F)(F)F)c(Cl)c2)NC(=O)CN(C)C(=O)[C@H](Cc2ccc(C(F)(F)F)cc2)N(CC)C(=O)CN(C)C(=O)CN(C)C1=O [PP0234] ([NMeL]I[Sar][Sar][NEtPhe(4-CF3)][Sar][hPhe(3-Cl-4-CF3)]P[Ac3c][NMeGly(cPent)][NMeD]-Morpholide; lactam N-11)	9.31	7.30			C (A compound having a KD ratio of 0.1 or more and less than 3 is denoted as C)	B (a compound having 3 or more and less than 10 is denoted as B)				
CC[C@H](C)[C@@H]1NC(=O)[C@H](CC(C)C)N(C)C(=O)C[C@@H](C(=O)N2CCOCC2)N(C)C(=O)[C@H](C2CCCC2)N(C)C(=O)C2(CCC2)NC(=O)[C@@H]2C[C@@H](OCC3CC3)CN2C(=O)[C@H](CCc2cc(F)c(C(F)(F)F)c(F)c2)NC(=O)CN(C)C(=O)[C@H](Cc2ccc(C(F)(F)F)cc2)N2CCCC[C@@H](C2=O)N(C)C(=O)CN(C)C1=O [PP1000]		8.12	10.41		B (a compound having 3 or more and less than 10 is denoted as B)	B (a compound having 3 or more and less than 10 is denoted as B)				
CCO[C@@H]1C[C@H]2C(=O)NC3(CCC3)C(=O)N(C)[C@@H](C3CCCC3)C(=O)N(C)[C@H](C(=O)N3C4CCC3COC4)CC(=O)N(C)[C@@H](CC)C(=O)N[C@@H]([C@@H](C)CC)C(=O)N(C)CC(=O)N(C)[C@H]3C/C=C\CCN(C3=O)[C@@H](Cc3ccc(C(F)(F)F)cc3)C(=O)N(C)CC(=O)N[C@@H](CCc3cc(F)c(C(F)(F)F)c(F)c3)C(=O)N2C1 [PP1093]		7.10	9.24		A (a compound having 10 or more and less than 20 is denoted as A)	AA (a compound having 20 or more is denoted as AA)				
CCO[C@@H]1C[C@H]2C(=O)NC3(CCC3)C(=O)N(C)[C@@H](C3CCCC3)C(=O)N(C)[C@H](C(=O)N(C)C)CC(=O)N(C)[C@@H](CC(C)(C)C)C(=O)N[C@@H]([C@@H](C)CC)C(=O)N(C)CC(=O)N(C)[C@H]3CCCCCN(C3=O)[C@@H](Cc3ccc(C(F)(F)F)cc3)C(=O)N(C)CC(=O)N[C@@H](CCc3cc(F)c(C(F)(F)F)c(F)c3)C(=O)N2C1 [PP0669]		7.69		9.28			B (a compound having 3 or more and less than 10 is denoted as B)	B (a compound having 3 or more and less than 10 is denoted as B)		
CC[C@H](C)[C@@H]1NC(=O)[C@H](CC(C)C)N(C)C(=O)C[C@@H](C(=O)N2CCOCC2)NC(=O)[C@H](C2CCCC2)N(C)C(=O)C2(CCCC2)NC(=O)[C@@H]2CCCN2C(=O)[C@H](CCc2cc(F)c(C(F)(F)F)c(F)c2)NC(=O)CN(C)C(=O)[C@H](Cc2ccc(C(F)(F)F)cc2)N2CCCC[C@@H](C2=O)N(C)C(=O)CN(C)C1=O [PP0541]		7.08		9.33			B (a compound having 3 or more and less than 10 is denoted as B)	B (a compound having 3 or more and less than 10 is denoted as B)		
CCO[C@@H]1C[C@H]2C(=O)NC3(CCC3)C(=O)N(C)[C@@H](C3CCCC3)C(=O)N(C)[C@H](C)CC(=O)N(C)[C@@H](CC3CCCC3)C(=O)N[C@@H]([C@@H](C)CC)C(=O)N(C)CC(=O)N(C)[C@H]3C/C=C\CCN(C3=O)[C@@H](Cc3ccc(F)cc3)C(=O)N(C)CC(=O)N[C@@H](CCc3cc(F)c(C(F)(F)F)c(F)c3)C(=O)N2C1 [PP1492]		6.89		9.03					B (a compound having 3 or more and less than 10 is denoted as B)	B (a compound having 3 or more and less than 10 is denoted as B)
CC[C@H](C)[C@@H]1NC(=O)[C@H](CC(C)C)N(C)C(=O)C[C@@H](C(=O)N2CCOCC2)N(C)C(=O)[C@H](C2CCC2)N(C)C(=O)C2(CCCC2)NC(=O)[C@@H]2CCCN2C(=O)[C@H](CCc2cc(F)c(C(F)(F)F)c(F)c2)NC(=O)CN(C)C(=O)[C@H](Cc2ccc(C(F)(F)F)cc2)N2CCCCC[C@@H](C2=O)N(C)C(=O)CN(C)C1=O [PP0504]		6.63		7.85			B (a compound having 3 or more and less than 10 is denoted as B)	B (a compound having 3 or more and less than 10 is denoted as B)		
CCO[C@@H]1C[C@H]2C(=O)NC3(CCC3)C(=O)N(C)[C@@H](C3CCCC3)C(=O)N(C)[C@H](C(=O)N(C)C)CC(=O)N(C)[C@@H](CC(C)C)C(=O)N[C@@H]([C@@H](C)CC)C(=O)N(C)CC(=O)N(C)[C@H]3CC(C)=CCN(C3=O)[C@@H](Cc3ccc(C(F)(F)F)cc3)C(=O)N(C)CC(=O)N[C@@H](CCc3cc(F)c(C(F)(F)F)c(F)c3)C(=O)N2C1 [PP1032]		7.36	9.42		C (A compound having a KD ratio of 0.1 or more and less than 3 is denoted as C)	C (A compound having a KD ratio of 0.1 or more and less than 3 is denoted as C)				
CCCN1C(=O)CN(C)C(=O)[C@@H]2CCN2C(=O)[C@H]([C@@H](C)CC)NC(=O)[C@H](CC(C)C)N(C)C(=O)C[C@@H](C(=O)N2CCOCC2)N(C)C(=O)[C@H](C2CCCC2)N(C)C(=O)C2(CCCC2)NC(=O)[C@@H]2C[C@H](C)CN2C(=O)[C@H](CCc2ccc(C(F)(F)F)c(Cl)c2)NC(=O)CN(C)C(=O)[C@@H]1Cc1ccc(C(F)(F)F)cc1 [PP0453] ([NMeL]I[Aze][Sar][NPrPhe(4-CF3)][Sar][hPhe(3-Cl-4-CF3)][Pro(4S-Me)][Ac5c][NMeGly(cPent)][NMeD]-Morpholide; lactam N-11)		7.69		8.92			C (A compound having a KD ratio of 0.1 or more and less than 3 is denoted as C)	B (a compound having 3 or more and less than 10 is denoted as B)		
CC[C@H](C)[C@@H]1NC(=O)[C@@H](CC(C)C)N(C)C(=O)C[C@@H](C(=O)N2CCOCC2)N(C)C(=O)[C@H](C2CCCC2)N(C)C(=O)C2(CCCC2)NC(=O)[C@@H]2CCCN2C(=O)[C@H](CCc2cc(F)c(C(F)(F)F)c(F)c2)NC(=O)CN(C)C(=O)[C@H](Cc2ccc(C(F)(F)F)cc2)N2CCCC[C@@H](C2=O)N(C)C(=O)CN(C)C1=O [PP0591]		5.41		7.06			B (a compound having 3 or more and less than 10 is denoted as B)	B (a compound having 3 or more and less than 10 is denoted as B)		

The next lines start with results.

pKd ([2]; 1:1 binding model)	pIC50 [3]	pKd ([2]; Single Cycle Kinetics)	pKd [2, 8]	SMILES	HRAS /KRAS (HRAS wild-type protein; [4])	NRAS /KRAS [1, 5]	HRAS /KRAS (HRAS wild-type protein; [6])	NRAS /KRAS [1, 7]	HRAS /KRAS (HRAS wild-type protein; ratio of KD value for HRAS wild-type protein to KD value for KRAS (SPR))	NRAS /KRAS ([1]; ratio of KD value for GDP-bound NRAS wild-type protein to KD value for KRAS (SPR))
9.19	7.20			CCO[C@@H]1C[C@H]2C(=O)NC3(CC(C)(C)C3)C(=O)N(C)[C@@H](C3CCCC3)C(=O)N(C)[C@H](C(=O)N(C)CC)CC(=O)N(C)[C@@H](CC(C)C)C(=O)N[C@@H]([C@@H](C)CC)C(=O)N(C)CC(=O)N(C)[C@H]3C/C=C\CCN(C3=O)[C@@H](Cc3ccc(C(F)F)cc3)C(=O)N(C)CC(=O)N[C@@H](CCc3ccc(C4CC4)c(Cl)c3)C(=O)N2C1 [PP3155]	A (a compound having 10 or more and less than 20 is denoted as A)	A (a compound having 10 or more and less than 20 is denoted as A)				
9.48	6.09			CC[C@H](C)[C@@H]1NC(=O)[C@H](COC)N(C)C(=O)C[C@@H](C(=O)N(C)C)N(C)C(=O)[C@H](C2CCCC2)N(C)C(=O)C2(CC(C)(C)C2)NC(=O)CNC(=O)[C@H](CCc2ccc(C(F)(F)F)c(Cl)c2)NC(=O)CN(C)C(=O)[C@H](Cc2ccc(C(F)(F)F)cc2)N2CC/C=C\C[C@@H](C2=O)N(C)C(=O)CN(C)C1=O [PP3134]	A (a compound having 10 or more and less than 20 is denoted as A)	AA (a compound having 20 or more is denoted as AA)				
10.08	7.64			CC[C@H](C)[C@@H]1NC(=O)[C@H](COC)NC(=O)C[C@@H](C(=O)N(C)CC)N(C)C(=O)[C@H](C2CCCC2)N(C)C(=O)C2(CC(C)(C)C2)NC(=O)[C@@H]2C[C@@H](F)CN2C(=O)[C@H](CCc2ccc(C(F)(F)F)c(OC)c2)NC(=O)CN(C)C(=O)[C@H](Cc2ccc(C(F)(F)F)cc2)N2CC/C=C\C[C@@H](C2=O)N(C)C(=O)CN(C)C1=O [PP3137]	A (a compound having 10 or more and less than 20 is denoted as A)	A (a compound having 10 or more and less than 20 is denoted as A)				
9.28	7.53			CCC[C@H]1C(=O)N[C@@H]([C@@H](C)CC)C(=O)N(C)CC(=O)N(C)[C@H]2C/C=C\CCN(C2=O)[C@@H](Cc2ccc(C)cc2)C(=O)N(C)CC(=O)N[C@@H](CCc2ccc(C(F)(F)F)c(OC)c2)C(=O)N2CC3(CC3)C[C@H]2C(=O)NC2(CC(C)(C)C2)C(=O)N(C)[C@@H](CC(C)C)C(=O)N(C)[C@H](C(=O)N(C)C)CC(=O)N1C [PP3013]	B (a compound having 3 or more and less than 10 is denoted as B)	AA (a compound having 20 or more is denoted as AA)				
	7.19		9.85	CCC[C@H]1C(=O)N[C@@H]([C@@H](C)CC)C(=O)N(C)CC(=O)N(C)[C@H]2C/C=C\CCN(C2=O)[C@@H](Cc2ccc(C)cc2)C(=O)N(C)CC(=O)N[C@@H](CCc2ccc(C(F)(F)F)c(Cl)c2)C(=O)N2C[C@H](CC)C[C@H]2C(=O)NC2(CCC2)C(=O)N(C)[C@@H](C2CCCC2)C(=O)N(C)[C@H](C(=O)N(C)C)CC(=O)N1C [PP2237]			A (a compound having 10 or more and less than 20 is denoted as A)	A (a compound having 10 or more and less than 20 is denoted as A)		
